Experimental data as given in the NIST ThermoML archive (doi:10.1016/j.jct.2014.01.030).

Assay: xn = mol fraction of the nth substance listed
Details: 101 kPa, Liquid; for speed of sound: Sing-around technique in a fixed-path interferometer; for mass density: Vibrating tube method

CCn1cc[n+](C)c1.COS(=O)(=O)[O-] [1-ethyl-3-methylimidazolium methylsulfate] + CC(C)O
Details	mass density, 288.15 K [kg/m3]	mass density, 298.15 K [kg/m3]	mass density, 308.15 K [kg/m3]	speed of sound, 288.15 K [m/s]	speed of sound, 298.15 K [m/s]	speed of sound, 308.15 K [m/s]
x2 = 0	1287.57	1280.81	1273.97	1781	1756	1732
x2 = 0.049	1277.61	1270.72	1263.87	1766	1741	1717
x2 = 0.101	1266.36	1259.44	1252.56	1749	1724	1700
x2 = 0.205	1240.88	1233.92	1227.01	1708	1683	1658
x2 = 0.307	1212.09	1205.09	1198.13	1659	1634	1609
x2 = 0.388	1185.23	1178.18	1171.15	1614	1588	1564
x2 = 0.505	1140.35	1133.21	1126.08	1541	1515	1490
x2 = 0.611	1091.15	1083.89	1076.62	1469	1443	1416
x2 = 0.705	1039.05	1031.61	1024.15	1402	1375	1348
x2 = 0.805	972.17	964.55	956.84	1326	1298	1269
x2 = 0.902	891.92	884.06	876.06	1252	1221	1190
x2 = 0.953	842.51	834.48	826.24	1214	1181	1148

CCn1cc[n+](C)c1.COS(=O)(=O)[O-] [1-ethyl-3-methylimidazolium methylsulfate] + CCC(C)O
Details	mass density, 288.15 K [kg/m3]	mass density, 298.15 K [kg/m3]	mass density, 308.15 K [kg/m3]	speed of sound, 288.15 K [m/s]	speed of sound, 298.15 K [m/s]	speed of sound, 308.15 K [m/s]
x2 = 0	1287.57	1280.81	1273.97	1781	1756	1732
x2 = 0.054	1274.82	1267.9	1261.04	1762	1738	1714
x2 = 0.106	1261.26	1254.37	1247.52	1743	1718	1693
x2 = 0.204	1233.86	1226.94	1220.05	1698	1673	1649
x2 = 0.306	1201.1	1194.21	1187.37	1644	1619	1594
x2 = 0.405	1165.21	1158.22	1151.25	1587	1562	1536
x2 = 0.507	1122.93	1115.87	1108.83	1527	1501	1475
x2 = 0.608	1075.89	1068.69	1061.49	1467	1440	1414
x2 = 0.713	1019.51	1012.15	1004.76	1406	1378	1350
x2 = 0.801	964.94	957.44	949.85	1356	1326	1297
x2 = 0.905	890.81	883.1	875.21	1299	1267	1235
x2 = 0.948	856.61	848.81	840.73	1277	1244	1210

CCn1cc[n+](C)c1.COS(=O)(=O)[O-] [1-ethyl-3-methylimidazolium methylsulfate] + CCCCCO
Details	mass density, 288.15 K [kg/m3]	mass density, 298.15 K [kg/m3]	mass density, 308.15 K [kg/m3]	speed of sound, 288.15 K [m/s]	speed of sound, 298.15 K [m/s]	speed of sound, 308.15 K [m/s]
x2 = 0	1287.57	1280.81	1273.97	1781	1756	1732
x2 = 0.057	1271.79	1264.9	1258.06	1759	1734	1710
x2 = 0.113	1255.1	1248.21	1241.74	1733	1708	1684
x2 = 0.216	1221.14	1214.5	1207.89	1678	1652	1628
x2 = 0.306	1188.62	1181.87	1175.24	1627	1600	1576
x2 = 0.404	1150.41	1143.48	1136.6	1569	1544	1519
x2 = 0.51	1104.6	1097.6	1090.68	1511	1485	1459
x2 = 0.608	1058.29	1051.16	1043.98	1463	1435	1408
x2 = 0.716	1001.72	994.56	987.39	1413	1385	1357
x2 = 0.801	952.72	945.38	938.08	1378	1349	1320
x2 = 0.9	889.67	882.45	875.19	1342	1311	1280
x2 = 0.956	851	843.78	836.48	1325	1292	1260

CCn1cc[n+](C)c1.COS(=O)(=O)[O-] [1-ethyl-3-methylimidazolium methylsulfate] + CCCO
Details	mass density, 288.15 K [kg/m3]	mass density, 298.15 K [kg/m3]	mass density, 308.15 K [kg/m3]	speed of sound, 288.15 K [m/s]	speed of sound, 298.15 K [m/s]	speed of sound, 308.15 K [m/s]
x2 = 0	1287.57	1280.81	1273.97	1781	1756	1732
x2 = 0.055	1277.08	1270.16	1263.29	1765	1741	1717
x2 = 0.104	1266.71	1259.77	1252.89	1750	1725	1701
x2 = 0.21	1241.65	1234.68	1227.75	1712	1687	1662
x2 = 0.307	1215.18	1208.16	1201.19	1671	1645	1620
x2 = 0.414	1181.08	1174.01	1166.97	1617	1592	1567
x2 = 0.519	1141.11	1133.94	1126.8	1559	1533	1507
x2 = 0.62	1095.52	1088.26	1081.02	1498	1471	1445
x2 = 0.718	1042.21	1034.8	1027.38	1435	1407	1380
x2 = 0.81	981.73	974.16	966.57	1373	1344	1315
x2 = 0.907	903.61	895.88	888.1	1307	1276	1245
x2 = 0.954	858.4	850.58	842.66	1276	1243	1211

CCn1cc[n+](C)c1.COS(=O)(=O)[O-] [1-ethyl-3-methylimidazolium methylsulfate] + CCO
Details	mass density, 288.15 K [kg/m3]	mass density, 298.15 K [kg/m3]	mass density, 308.15 K [kg/m3]	speed of sound, 288.15 K [m/s]	speed of sound, 298.15 K [m/s]	speed of sound, 308.15 K [m/s]
x2 = 0	1287.57	1280.81	1273.97	1781	1756	1732
x2 = 0.05	–	1273.01	1266.14	–	1744	1720
x2 = 0.0501	1279.94	–	–	1769	–	–
x2 = 0.1018	1271.31	–	–	1756	–	–
x2 = 0.102	–	1264.42	1257.55	–	1731	1707
x2 = 0.197	–	1246.51	1239.58	–	1704	1679
x2 = 0.1972	1253.48	–	–	1728	–	–
x2 = 0.3098	1228.51	–	–	1690	–	–
x2 = 0.31	–	1221.47	1214.47	–	1665	1640
x2 = 0.391	–	1199.39	1192.33	–	1630	1605
x2 = 0.3913	1206.5	–	–	1656	–	–
x2 = 0.503	1170.26	1163.02	1155.75	1600	1574	1549
x2 = 0.6129	1125.74	–	–	1532	–	–
x2 = 0.613	–	1118.41	1111.08	–	1506	1480
x2 = 0.703	–	1071.36	1063.86	–	1440	1413
x2 = 0.7031	1078.87	–	–	1467	–	–
x2 = 0.8087	1007.23	–	–	1376	–	–
x2 = 0.809	–	999.5	991.73	–	1348	1321
x2 = 0.901	–	914.27	906.19	–	1256	1226
x2 = 0.9011	922.29	–	–	1286	–	–
x2 = 0.948	–	859.57	851.28	–	1206	1175
x2 = 0.9482	867.78	–	–	1238	–	–

CCn1cc[n+](C)c1.COS(=O)(=O)[O-] [1-ethyl-3-methylimidazolium methylsulfate] + CO
Details	mass density, 288.15 K [kg/m3]	mass density, 298.15 K [kg/m3]	mass density, 308.15 K [kg/m3]	speed of sound, 288.15 K [m/s]	speed of sound, 298.15 K [m/s]	speed of sound, 308.15 K [m/s]
x2 = 0	1287.57	1280.81	1273.97	1781	1756	1732
x2 = 0.0515	1282.18	1275.24	1268.37	1772	1748	1724
x2 = 0.1025	1276.36	1269.42	1262.52	1763	1739	1715
x2 = 0.1919	1265.13	1258.14	1251.2	1747	1722	1698
x2 = 0.3013	1247.5	1240.45	1233.43	1720	1695	1670
x2 = 0.4032	1227.98	1220.84	1213.74	1690	1665	1640
x2 = 0.5038	1203.27	1196.01	1188.8	1653	1628	1602
x2 = 0.604	1170.7	1163.31	1155.94	1605	1578	1553
x2 = 0.7023	1127.32	1119.71	1112.12	1541	1514	1487
x2 = 0.8003	1065.67	1057.76	1049.86	1452	1424	1397
x2 = 0.9049	962.26	953.82	945.37	1316	1286	1258
x2 = 0.9515	893.83	885.04	876.21	1237	1206	1176
